Assay results: article PMC4113800 (Marine Drugs, 2014)

Tests used:
NCI-H460 cells = experiment: [3H]-mitoxantrone accumulation and efflux in parental NCI-H460 cells; assay type: cell-based, human; conditions: 11 at 10 or 30 μM, FTC 5.0 μM
Source text: […]. […] […]

BCRP [1] = target: T1, BCRP (Homo sapiens, UniProt Q9UNQ0); experiment: cell-based; conditions: NCI-H460/MX20
T1 sequence (Q9UNQ0 1-655): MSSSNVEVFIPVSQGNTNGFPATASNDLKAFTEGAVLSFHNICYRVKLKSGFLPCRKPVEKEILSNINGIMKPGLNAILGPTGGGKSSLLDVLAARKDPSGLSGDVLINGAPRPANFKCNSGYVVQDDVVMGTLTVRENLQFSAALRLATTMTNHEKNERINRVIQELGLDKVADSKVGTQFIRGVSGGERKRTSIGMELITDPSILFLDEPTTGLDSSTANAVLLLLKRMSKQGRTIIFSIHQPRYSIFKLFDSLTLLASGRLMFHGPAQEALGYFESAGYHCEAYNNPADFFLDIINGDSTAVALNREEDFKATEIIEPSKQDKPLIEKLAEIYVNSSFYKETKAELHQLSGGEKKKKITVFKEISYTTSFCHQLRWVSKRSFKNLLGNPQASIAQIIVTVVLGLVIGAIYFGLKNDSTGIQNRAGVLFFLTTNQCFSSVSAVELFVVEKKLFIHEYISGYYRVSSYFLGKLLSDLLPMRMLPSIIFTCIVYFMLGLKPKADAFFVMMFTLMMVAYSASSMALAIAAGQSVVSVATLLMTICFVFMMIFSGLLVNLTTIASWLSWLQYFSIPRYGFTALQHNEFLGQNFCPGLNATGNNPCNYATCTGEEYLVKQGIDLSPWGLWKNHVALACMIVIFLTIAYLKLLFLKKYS
Experimental: Flow cytometry based assays were used to measure the ability of natural or synthetic compounds to inhibit P-gp, BCRP or MRP1 mediated accumulation and/or efflux of fluorescent reagents. […] For the calcein AM accumulation assays, cells were directly analyzed by flow cytometry.
Intracellular fluorescence intensity was measured on a BD FACSCanto™ II flow cytometer (Becton Dickinson, San Jose, CA, USA) and data were analyzed through FlowJo (Tree Star, Inc., Ashland, OR, USA). […] Mitoxantrone fluorescence was detected with a 638 nm […] laser and a 660/20 nm band-pass filter. At least 10,000 events were collected for all of the flow cytometry experiment. By increasing threshold value on forward scatter versus side scatter, debris was eliminated. Dead cells were excluded based on propidium iodide staining. Data are means ± SEM of at least three independent experiments performed in duplicate.

BCRP [2] = target: T1, BCRP; conditions: FTC 5.0 μM; [3H]-mitoxantrone 0.10 μM; NCI-H460/MX20
Experimental: In the efflux study cells were incubated with 0.1 μM [^3H]-mitoxantrone as the same in the accumulation study.

COc1ccc2c3c([nH]c2c1)[C@H](C=C(C)C)N1C(=O)[C@@H]2CCCN2C(=O)[C@@H]1C3 [FTC, Fumitremorgin C, reference compound]
effect on intracellular [3H]-mitoxantrone levels, accumulation phase (NCI-H460 cells): neither 11 (10 or 30 μM) nor FTC (5.0 μM) significantly changed intracellular [^3H]-mitoxantrone levels | effect on intracellular [3H]-mitoxantrone levels, efflux phase (NCI-H460 cells): Neither 11 nor FTC had a significant effect | FAR (fluorescence arbitrary ratio), mitoxantrone fluorescence (BCRP [1]; FTC 10 μM (positive control) vs PBS): 3.17 fold | % FTC (inhibition of mitoxantrone efflux normalized to 10 μM FTC) (BCRP [1]; FTC 10 μM (positive control, set as 100%)): 100 % FTC | increase in [3H]-mitoxantrone accumulation (BCRP [2]): 2.2 fold
